The record followed here is US8735322B2, “Herbicides” (Syngenta Limited, priority 2008, dated 2014).

Common to all, as to assay type: in vivo
Assay [1] has as its system Alopecurus myosuroides (ALOMY). Put plainly: Example B pre-emergence herbicidal activity, glasshouse pot test. The following applies: 312 h, rate 1000 g/ha, evaluated after 13 days, read-out: herbicidal damage ALOMY (100=total damage to plant; 0=no damage to plant). The procedure: (§1) Seeds of a variety of test species were sown in standard soil in pots. After cultivation for one day (pre-emergence) or after 8 days cultivation (post-emergence) under controlled conditions in a glasshouse (at 24/16° C., day/night; 14 hours light; 65% humidity), the plants were sprayed with an aqueous spray solution derived from the formulation of the technical active ingredient in acetone/water (50:50) solution containing 0.5% Tween 20 (polyoxyethelyene sorbitan monolaurate, CAS RN 9005-64-5). The test plants were then grown in a glasshouse under controlled conditions in a glasshouse (at 24/16° C., day/night; 14 hours light; 65% humidity) and watered twice daily. After 13 days for pre and post-emergence, the test was evaluated (100=total damage to plant; 0=no damage to plant). Alopecurus myosuroides (ALOMY), Avena fatua (AVEFA), Setaria faberi (SETFA), Echinochloa crus-galli (ECHCG), Solanum nigrum (SOLNI) and Amaranthus retroflexus (AMARE) Pre-Emergence Activity

The test system of assay [2] is Amaranthus retroflexus (AMARE). Described as above. The following applies: 312 h, rate 1000 g/ha, evaluated after 13 days, read-out: herbicidal damage AMARE (100=total damage to plant; 0=no damage to plant). How it is done:
as §1

In assay [3] the test system is Avena fatua (AVEFA). The description is as above. The note with it: 312 h, rate 1000 g/ha, evaluated after 13 days, read-out: herbicidal damage AVEFA (100=total damage to plant; 0=no damage to plant). The procedure: as §1
The test system of assay [4] is Echinochloa crus-galli (ECHCG). Described as above. The following applies: 312 h, rate 1000 g/ha, evaluated after 13 days, read-out: herbicidal damage ECHCG (100=total damage to plant; 0=no damage to plant). How it is done: as §1
The subject of assay [5] is Setaria faberi (SETFA). The description is as above. The following applies: 312 h, rate 1000 g/ha, evaluated after 13 days, read-out: herbicidal damage SETFA (100=total damage to plant; 0=no damage to plant). The procedure: as §1
The test system of assay [6] is Solanum nigrum (SOLNI). The description is as above. The note with it: 312 h, rate 1000 g/ha, evaluated after 13 days, read-out: herbicidal damage SOLNI (100=total damage to plant; 0=no damage to plant). How it is done: as §1
The subject of assay [7] is Alopecurus myosuroides (ALOMY). Put plainly: Example B post-emergence herbicidal activity, glasshouse pot test. The following applies: 312 h, rate 1000 g/ha, evaluated after 13 days, read-out: herbicidal damage ALOMY (100=total damage to plant; 0=no damage to plant). The procedure: as §1, with “Post-Emergence” for “Pre-Emergence”
For assay [8], the system named is Amaranthus retroflexus (AMARE). Described as above. The following applies: 312 h, rate 1000 g/ha, evaluated after 13 days, read-out: herbicidal damage AMARE (100=total damage to plant; 0=no damage to plant). How it is done:
as §1, with “Post-Emergence” for “Pre-Emergence”

The test system of assay [9] is Avena fatua (AVEFA). The description is as above. The note with it: 312 h, rate 1000 g/ha, evaluated after 13 days, read-out: herbicidal damage AVEFA (100=total damage to plant; 0=no damage to plant). The procedure: as §1, with “Post-Emergence” for “Pre-Emergence”
Assay [10] relates to Echinochloa crus-galli (ECHCG). The description is as above. The following applies: 312 h, rate 1000 g/ha, evaluated after 13 days, read-out: herbicidal damage ECHCG (100=total damage to plant; 0=no damage to plant). The procedure: as §1, with “Post-Emergence” for “Pre-Emergence”
For assay [11], the system named is Setaria faberi (SETFA). Described as above. The note with it: 312 h, rate 1000 g/ha, evaluated after 13 days, read-out: herbicidal damage SETFA (100=total damage to plant; 0=no damage to plant). The procedure:
as §1, with “Post-Emergence” for “Pre-Emergence”

For assay [12], the system named is Solanum nigrum (SOLNI). Described as above. The following applies: 312 h, rate 1000 g/ha, evaluated after 13 days, read-out: herbicidal damage SOLNI (100=total damage to plant; 0=no damage to plant). The procedure:
as §1, with “Post-Emergence” for “Pre-Emergence”

For the molecule `CCc1ccc(-c2ccc(Cl)cc2)cc1C1=C(O)CC(CC2OCCO2)CC1=O` (stereo not drawn) [Compound A-45], the pest or weed control at 1000 g/ha in [1] turned out to be 60%; in assay [2], 0%; in the assay with Avena fatua (AVEFA) [3] it was 70%; in assay [4] it was 100%; in the assay on Setaria faberi (SETFA) [5] it was 90%; in the assay with Solanum nigrum (SOLNI) [6] it was 100%. Moreover, the pest or weed control at 1000 g/ha worked out at 100% in [7]; 0% in [8]; 100% with Avena fatua (AVEFA) [9]; 100% in assay [10]; 100% in the assay on Setaria faberi (SETFA) [11]; 10% with Solanum nigrum (SOLNI) [12].
As for `Cc1ccc(-c2ccc(Cl)cc2)cc1C1=C(O)CC(CC2O[C@H]3COC[C@H]3O2)CC1=O` (stereo partly drawn) [Compound A-61], the pest or weed control at 1000 g/ha in assay [1] amounted to 0%; in [2], 0%; in the assay with Avena fatua (AVEFA) [3] it was 0%; in assay [4], 20%; in the assay with Setaria faberi (SETFA) [5], 30%; in the assay with Solanum nigrum (SOLNI) [6], 0%. For the same molecule, the pest or weed control at 1000 g/ha was determined as 90% in assay [7]; 0% in [8]; 80% in the assay with Avena fatua (AVEFA) [9]; 100% in assay [10]; 100% in the assay with Setaria faberi (SETFA) [11]; 0% in the assay with Solanum nigrum (SOLNI) [12].
As to `Cc1cc(-c2ccc(Cl)cc2)cc(C)c1C1=C(O)CC(CC2CCOCC2)CC1=O` (stereo not drawn) [Compound A-37], the pest or weed control at 1000 g/ha was 80% in [1]; 20% in [2]; 90% in the assay on Avena fatua (AVEFA) [3]; 100% in assay [4]; 100% with Setaria faberi (SETFA) [5]; 20% in the assay with Solanum nigrum (SOLNI) [6]. Moreover, the pest or weed control at 1000 g/ha in [7] was found to be 90%; in [8] it was 40%; in the assay on Avena fatua (AVEFA) [9], 100%; in assay [10], 100%; with Setaria faberi (SETFA) [11] it was 100%; with Solanum nigrum (SOLNI) [12] it was 70%.
In the case of `Cc1ccc(-c2ccc(Cl)cc2)cc1C1=C(O)CC(CC2OCC(C)(C)CO2)CC1=O` (stereo not drawn) [Compound A-56], the pest or weed control at 1000 g/ha in assay [1] is 20%; in assay [2], 0%; with Avena fatua (AVEFA) [3], 0%; in [4], 0%; in the assay with Setaria faberi (SETFA) [5] it was 70%; in the assay on Solanum nigrum (SOLNI) [6], 0%. For the same molecule, the pest or weed control at 1000 g/ha in [7] was 80%; in assay [8], 0%; in the assay on Avena fatua (AVEFA) [9] it was 0%; in assay [10] it was 100%; with Setaria faberi (SETFA) [11] it was 90%; in the assay on Solanum nigrum (SOLNI) [12], 0%.
For the molecule `CCc1cc(-c2ccc(C)cc2)cc(CC)c1C1=C(O)CC(CC2CCOCC2)CC1=O` (stereo not drawn) [Compound A-33], the pest or weed control at 1000 g/ha in [1] worked out at 50%; in [2], 0%; with Avena fatua (AVEFA) [3], 60%; in [4], 90%; in the assay with Setaria faberi (SETFA) [5], 100%; in the assay with Solanum nigrum (SOLNI) [6], 0%. Besides, the pest or weed control at 1000 g/ha in [7] worked out at 30%; in assay [8], 60%; in the assay on Avena fatua (AVEFA) [9], 70%; in assay [10], 100%; in the assay with Setaria faberi (SETFA) [11], 80%; in the assay with Solanum nigrum (SOLNI) [12], 70%.
Regarding `Cc1ccc(-c2ccc(Cl)cc2)cc1C1=C(O)CC(CC2OCCCCO2)CC1=O` (stereo not drawn) [Compound A-62], the pest or weed control at 1000 g/ha was 20% in [1]; 0% in assay [2]; 0% in the assay on Avena fatua (AVEFA) [3]; 50% in assay [4]; 60% with Setaria faberi (SETFA) [5]; 0% with Solanum nigrum (SOLNI) [6]. The pest or weed control at 1000 g/ha in assay [7] amounted to 90%; in [8], 0%; in the assay with Avena fatua (AVEFA) [9], 80%; in assay [10], 100%; with Setaria faberi (SETFA) [11], 100%; with Solanum nigrum (SOLNI) [12] it was 0%.
For the molecule `CCc1cc(-c2ccc(Cl)cc2)cc(CC)c1C1=C(O)CC(CC2CCOCC2)CC1=O` (stereo not drawn) [Compound A-34], the pest or weed control at 1000 g/ha was determined as 50% in assay [1]; 0% in assay [2]; 60% with Avena fatua (AVEFA) [3]; 100% in assay [4]; 90% in the assay on Setaria faberi (SETFA) [5]; 0% in the assay with Solanum nigrum (SOLNI) [6]. The pest or weed control at 1000 g/ha in assay [7] was found to be 50%; in assay [8], 20%; with Avena fatua (AVEFA) [9], 100%; in assay [10] it was 100%; in the assay with Setaria faberi (SETFA) [11], 90%; in the assay with Solanum nigrum (SOLNI) [12], 0%.
Take `Cc1ccc(-c2ccc(Cl)cc2)cc1C1=C(O)CC(CC2OCC(C)CO2)CC1=O` (stereo not drawn) [Compound A-64]: the pest or weed control at 1000 g/ha in [1] came to 0%; in assay [2], 0%; in the assay on Avena fatua (AVEFA) [3], 0%; in assay [4] it was 50%; in the assay with Setaria faberi (SETFA) [5], 50%; in the assay on Solanum nigrum (SOLNI) [6] it was 0%. For the same molecule, the pest or weed control at 1000 g/ha was 80% in assay [7]; 0% in assay [8]; 80% with Avena fatua (AVEFA) [9]; 100% in assay [10]; 100% in the assay on Setaria faberi (SETFA) [11]; 0% with Solanum nigrum (SOLNI) [12].
For the molecule `Cc1cc(-c2ccccc2)cc(C)c1C1=C(O)CC(CC2CCOCC2)CC1=O` (stereo not drawn) [Compound A-41], the pest or weed control at 1000 g/ha in assay [1] is 90%; in assay [2] it was 0%; with Avena fatua (AVEFA) [3], 80%; in [4], 100%; in the assay on Setaria faberi (SETFA) [5] it was 100%; in the assay on Solanum nigrum (SOLNI) [6] it was 0%. Besides, the pest or weed control at 1000 g/ha came out at 90% in assay [7]; 40% in assay [8]; 70% in the assay on Avena fatua (AVEFA) [9]; 100% in [10]; 100% with Setaria faberi (SETFA) [11]; 40% in the assay with Solanum nigrum (SOLNI) [12].
For `Cc1ccc(-c2ccc(Cl)cc2)cc1C1=C(O)CC(CC2OCCO2)CC1=O` (stereo not drawn) [Compound A-46, 2-(4′-Chloro-4-methylbiphenyl-3-yl)-5-[1,3]dioxolan-2-ylmethylcyclohexane-1,3-dione], the pest or weed control at 1000 g/ha stood at 20% in assay [1]; 0% in assay [2]; 40% with Avena fatua (AVEFA) [3]; 40% in assay [4]; 90% in the assay on Setaria faberi (SETFA) [5]; 0% with Solanum nigrum (SOLNI) [6]. Moreover, the pest or weed control at 1000 g/ha in [7] is 90%; in [8] it was 20%; in the assay with Avena fatua (AVEFA) [9] it was 80%; in assay [10] it was 100%; with Setaria faberi (SETFA) [11] it was 90%; in the assay with Solanum nigrum (SOLNI) [12], 20%.
